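Following 48 hours of exposure in 96-well plates, responses at five concentrations were used to interpolate endpoints linearly. Here, GI50 denotes the concentration required for 50% inhibition of growth. TGI: total growth inhibition.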
What was measured:
Test in all cases: DTP human tumour cell line panel, 48 h
HCT-15 colon = test system: HCT-15 colon
SW-620 colon = test system: SW-620 colon
786-0 renal = test system: 786-0 renal
DU-145 prostate = test system: DU-145 prostate
MALME-3M melanoma = test system: MALME-3M melanoma
NCI/ADR-RES ovarian = test system: NCI/ADR-RES ovarian
M14 melanoma = test system: M14 melanoma
MDA-MB-435 = test system: MDA-MB-435
SK-MEL-5 melanoma = test system: SK-MEL-5 melanoma
U251 CNS = test system: U251 CNS
CCRF-CEM leukemia = test system: CCRF-CEM leukemia
ACHN renal = test system: ACHN renal
KM12 colon = test system: KM12 colon
OVCAR-5 ovarian = test system: OVCAR-5 ovarian
SF-539 CNS = test system: SF-539 CNS
NCI-H522 lung = test system: NCI-H522 lung
SF-295 CNS = test system: SF-295 CNS
OVCAR-4 ovarian = test system: OVCAR-4 ovarian
HOP-62 NSCLC = test system: HOP-62 NSCLC
SK-OV-3 ovarian = test system: SK-OV-3 ovarian
NCI-H23 lung = test system: NCI-H23 lung
K-562 leukemia = test system: K-562 leukemia
SNB-75 CNS = test system: SNB-75 CNS
COLO 205 colon = test system: COLO 205 colon
HT29 colon = test system: HT29 colon
BT-549 breast = test system: BT-549 breast
HCC-2998 colon = test system: HCC-2998 colon
SK-MEL-2 melanoma = test system: SK-MEL-2 melanoma
A549 NSCLC = test system: A549 NSCLC
RPMI-8226 leukemia = test system: RPMI-8226 leukemia
UO-31 renal = test system: UO-31 renal
RXF 393 renal = test system: RXF 393 renal
SF-268 CNS = test system: SF-268 CNS
IGROV1 ovarian = test system: IGROV1 ovarian
HOP-92 NSCLC = test system: HOP-92 NSCLC
NCI-H226 lung = test system: NCI-H226 lung
HS 578T breast = test system: HS 578T breast
CAKI-1 renal = test system: CAKI-1 renal
OVCAR-3 ovarian = test system: OVCAR-3 ovarian
TK-10 renal = test system: TK-10 renal
SNB-19 CNS = test system: SNB-19 CNS
SK-MEL-28 melanoma = test system: SK-MEL-28 melanoma
HL-60(TB) leukemia = test system: HL-60(TB) leukemia
PC-3 prostate = test system: PC-3 prostate
T-47D breast = test system: T-47D breast
UACC-62 melanoma = test system: UACC-62 melanoma
SR leukemia = test system: SR leukemia
MOLT-4 leukemia = test system: MOLT-4 leukemia
MCF7 breast = test system: MCF7 breast
NCI-H460 lung = test system: NCI-H460 lung
SN12C renal = test system: SN12C renal
EKVX NSCLC = test system: EKVX NSCLC
LOX IMVI melanoma = test system: LOX IMVI melanoma
OVCAR-8 ovarian = test system: OVCAR-8 ovarian
A498 renal = test system: A498 renal
HCT-116 colon = test system: HCT-116 colon
MDA-MB-231 breast = test system: MDA-MB-231 breast

CCCCCCCCCCC/C=C\C[C@H](O)C/C=C1/C(=O)C=C[C@@H]1C/C=C\CCCC(=O)OC
GI50 (HCT-15 colon): 590 nM
TGI (HCT-15 colon): 1290 nM
GI50 (SW-620 colon): 1090 nM
TGI (SW-620 colon): 4050 nM
GI50 (786-0 renal): 1030 nM
TGI (786-0 renal): 3980 nM
GI50 (DU-145 prostate): 1350 nM
TGI (DU-145 prostate): 5570 nM
GI50 (MALME-3M melanoma): 803 nM
TGI (MALME-3M melanoma): 2410 nM
GI50 (NCI/ADR-RES ovarian): 925 nM
TGI (NCI/ADR-RES ovarian): 2930 nM
GI50 (M14 melanoma): 1040 nM
TGI (M14 melanoma): 4320 nM
GI50 (MDA-MB-435): 710 nM
TGI (MDA-MB-435): 1800 nM
GI50 (SK-MEL-5 melanoma): 603 nM
TGI (SK-MEL-5 melanoma): 1170 nM
GI50 (U251 CNS): 581 nM
TGI (U251 CNS): 1530 nM
GI50 (CCRF-CEM leukemia): 923 nM
TGI (CCRF-CEM leukemia): 5360 nM
GI50 (ACHN renal): 1230 nM
TGI (ACHN renal): 4900 nM
GI50 (KM12 colon): 852 nM
TGI (KM12 colon): 2450 nM
GI50 (OVCAR-5 ovarian): 1700 nM
TGI (OVCAR-5 ovarian): 8580 nM
GI50 (SF-539 CNS): 1020 nM
TGI (SF-539 CNS): 3710 nM
GI50 (NCI-H522 lung): 753 nM
TGI (NCI-H522 lung): 2360 nM
GI50 (SF-295 CNS): 1370 nM
TGI (SF-295 CNS): 6740 nM
GI50 (OVCAR-4 ovarian): 862 nM
TGI (OVCAR-4 ovarian): 3680 nM
GI50 (HOP-62 NSCLC): 1010 nM
TGI (HOP-62 NSCLC): 3510 nM
GI50 (SK-OV-3 ovarian): 5780 nM
TGI (SK-OV-3 ovarian): 21500 nM
GI50 (NCI-H23 lung): 687 nM
TGI (NCI-H23 lung): 1580 nM
GI50 (K-562 leukemia): 898 nM
TGI (K-562 leukemia): 3200 nM
GI50 (SNB-75 CNS): 2070 nM
TGI (SNB-75 CNS): 6790 nM
GI50 (COLO 205 colon): 1210 nM
TGI (COLO 205 colon): 3830 nM
GI50 (HT29 colon): 1030 nM
TGI (HT29 colon): 2850 nM
GI50 (BT-549 breast): 750 nM
TGI (BT-549 breast): 1800 nM
GI50 (HCC-2998 colon): 1240 nM
TGI (HCC-2998 colon): 4010 nM
GI50 (SK-MEL-2 melanoma): 1460 nM
TGI (SK-MEL-2 melanoma): 5670 nM
GI50 (A549 NSCLC): 5960 nM
TGI (A549 NSCLC): 33300 nM
GI50 (RPMI-8226 leukemia): 534 nM
TGI (RPMI-8226 leukemia): 1620 nM
GI50 (UO-31 renal): 1100 nM
TGI (UO-31 renal): 4670 nM
GI50 (RXF 393 renal): 827 nM
TGI (RXF 393 renal): 3180 nM
GI50 (SF-268 CNS): 939 nM
TGI (SF-268 CNS): 3970 nM
GI50 (IGROV1 ovarian): 742 nM
TGI (IGROV1 ovarian): 2660 nM
GI50 (HOP-92 NSCLC): 5430 nM
TGI (HOP-92 NSCLC): 11900 nM
GI50 (NCI-H226 lung): 732 nM
TGI (NCI-H226 lung): 1760 nM
GI50 (HS 578T breast): 986 nM
TGI (HS 578T breast): 6100 nM
GI50 (CAKI-1 renal): 1070 nM
TGI (CAKI-1 renal): 5620 nM
GI50 (OVCAR-3 ovarian): 671 nM
TGI (OVCAR-3 ovarian): 1490 nM
GI50 (TK-10 renal): 1950 nM
TGI (TK-10 renal): 9780 nM
GI50 (SNB-19 CNS): 1240 nM
TGI (SNB-19 CNS): 4580 nM
GI50 (SK-MEL-28 melanoma): 840 nM
TGI (SK-MEL-28 melanoma): 2310 nM
GI50 (HL-60(TB) leukemia): 835 nM
TGI (HL-60(TB) leukemia): 2680 nM
GI50 (PC-3 prostate): 836 nM
TGI (PC-3 prostate): 2760 nM
GI50 (T-47D breast): 796 nM
TGI (T-47D breast): 3440 nM
GI50 (UACC-62 melanoma): 553 nM
TGI (UACC-62 melanoma): 1330 nM
GI50 (SR leukemia): 720 nM
TGI (SR leukemia): 3970 nM
GI50 (MOLT-4 leukemia): 838 nM
TGI (MOLT-4 leukemia): 2710 nM
GI50 (MCF7 breast): 754 nM
TGI (MCF7 breast): 4080 nM
GI50 (NCI-H460 lung): 1110 nM
TGI (NCI-H460 lung): 3910 nM
GI50 (SN12C renal): 841 nM
TGI (SN12C renal): 2290 nM
GI50 (EKVX NSCLC): 766 nM
TGI (EKVX NSCLC): 2040 nM
GI50 (LOX IMVI melanoma): 536 nM
TGI (LOX IMVI melanoma): 1050 nM
GI50 (OVCAR-8 ovarian): 966 nM
TGI (OVCAR-8 ovarian): 4640 nM
GI50 (A498 renal): 7680 nM
TGI (A498 renal): 13600 nM
GI50 (HCT-116 colon): 734 nM
TGI (HCT-116 colon): 1830 nM
GI50 (MDA-MB-231 breast): 895 nM
TGI (MDA-MB-231 breast): 2610 nM

Reference: PubChem BioAssay (NCI)
